Assay results as given in ChEMBL document CHEMBL1201861, “Genomics of Drug Sensitity in Cancer screening data, Wellcome Trust Sanger Institute”.

How the values were obtained:
Test in all cases: cells
NCI-H1395 = assay type: functional, cell-based; conditions: Homo sapiens;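 further: cell viability assay read-out quantifying reduced proliferation of human NCI-H1395 cells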
Description: SANGER: Inhibition of human NCI-H1395 cell growth in a cell viability assay.

NCI-H1650 = assay type: functional, cell-based; conditions: Homo sapiens;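 further: growth inhibition of human NCI-H1650 cells measured by a cell viability assay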
Description: SANGER: Inhibition of human NCI-H1650 cell growth in a cell viability assay.

NB13 = assay type: functional, cell-based; conditions: Homo sapiens;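 further: cell viability readout measuring growth inhibition of human NB13 cells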
Description: SANGER: Inhibition of human NB13 cell growth in a cell viability assay.

Ramos-2G6-4C10 = assay type: functional, cell-based; conditions: Homo sapiens;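 further: growth inhibition of the cell line, measured by a cell viability read-out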
Description: SANGER: Inhibition of human Ramos-2G6-4C10 cell growth in a cell viability assay.

SF-539 = assay type: functional, cell-based; conditions: Homo sapiens;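 further: Read-out is a cell viability assay, with IC50 reflecting inhibition of cell growth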
Description: SANGER: Inhibition of human SF539 cell growth in a cell viability assay.

OMC-1 = assay type: functional, cell-based; conditions: Homo sapiens;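 further: growth inhibition of the OMC-1 cell line, measured by a cell viability assay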
Description: SANGER: Inhibition of human OMC-1 cell growth in a cell viability assay.

A4-Fuk = assay type: functional, cell-based; conditions: Homo sapiens;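 further: growth inhibition of A4-Fuk cells, read out by a cell viability assay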
Description: SANGER: Inhibition of human A4-Fuk cell growth in a cell viability assay.

RPMI-8226 = assay type: functional, cell-based; conditions: Homo sapiens
Description: SANGER: Inhibition of human RPMI-8226 cell growth in a cell viability assay.

KG-1 = assay type: functional, cell-based; conditions: Homo sapiens;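 further: growth inhibition of KG-1 cells, read out by a cell viability assay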
Description: SANGER: Inhibition of human KG-1 cell growth in a cell viability assay.

TE-8 = assay type: functional, cell-based; conditions: Homo sapiens;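 further: growth inhibition of TE-8 cells, measured with a cell viability readout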
Description: SANGER: Inhibition of human TE-8 cell growth in a cell viability assay.

HOP-62 = assay type: functional, cell-based; conditions: Homo sapiens;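 further: cell growth inhibition determined with a viability assay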
Description: SANGER: Inhibition of human HOP-62 cell growth in a cell viability assay.

CAL-12T = assay type: functional, cell-based, Homo sapiens; conditions: cal-12t;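 further: growth inhibition of human CAL-12T cells, read out with a cell viability assay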
Description: SANGER: Inhibition of human CAL-12T cell growth in a cell viability assay.

BB65-RCC = assay type: functional, cell-based; conditions: Homo sapiens;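 further: growth inhibition of the cell line, measured with a cell viability assay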
Description: SANGER: Inhibition of human BB65-RCC cell growth in a cell viability assay.

SCH = assay type: functional, cell-based; conditions: Homo sapiens;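 further: growth inhibition of human SCH cells, read out in a cell viability assay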
Description: SANGER: Inhibition of human SCH cell growth in a cell viability assay.

TGBC1TKB = assay type: functional, cell-based; conditions: Homo sapiens;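 further: growth inhibition of TGBC1TKB cells, read out by a cell viability assay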
Description: SANGER: Inhibition of human TGBC1TKB cell growth in a cell viability assay.

GI-1 = assay type: functional, cell-based; conditions: Homo sapiens;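 further: growth inhibition of human GI-1 cells, measured with a cell viability readout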
Description: SANGER: Inhibition of human GI-1 cell growth in a cell viability assay.

SK-N-DZ = assay type: functional, cell-based; conditions: Homo sapiens;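 further: growth inhibition of the cancer cell line, read out through a viability assay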
Description: SANGER: Inhibition of human SK-N-DZ cell growth in a cell viability assay.

SK-NEP-1 = assay type: functional, cell-based; conditions: Homo sapiens;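 further: growth inhibition of human SK-NEP-1 cells, read out by a cell viability assay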
Description: SANGER: Inhibition of human SK-NEP-1 cell growth in a cell viability assay.

MHH-PREB-1 = assay type: functional, cell-based; conditions: Homo sapiens;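 further: cell viability assay measuring inhibition of proliferation of human MHH-PREB-1 cells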
Description: SANGER: Inhibition of human MHH-PREB-1 cell growth in a cell viability assay.

MOLT-16 = assay type: functional, cell-based; conditions: Homo sapiens;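 further: growth inhibition of human MOLT-16 cells, read out with a cell viability assay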
Description: SANGER: Inhibition of human MOLT-16 cell growth in a cell viability assay.

NB69 = assay type: functional, cell-based; conditions: Homo sapiens;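 further: growth inhibition of NB69 cells, determined by a cell viability assay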
Description: SANGER: Inhibition of human NB69 cell growth in a cell viability assay.

SW-620 = assay type: functional, cell-based; conditions: Homo sapiens;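 further: growth inhibition of human SW-620 cells, measured by a cell viability assay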
Description: SANGER: Inhibition of human SW620 cell growth in a cell viability assay.

JVM-3 = assay type: functional, cell-based; conditions: Homo sapiens;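 further: growth inhibition of human JVM-3 cells, read out with a cell viability assay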
Description: SANGER: Inhibition of human JVM-3 cell growth in a cell viability assay.

D-502MG = assay type: functional, cell-based; conditions: Homo sapiens
Description: SANGER: Inhibition of human D-502MG cell growth in a cell viability assay.

SK-UT-1 = assay type: functional, cell-based; conditions: Homo sapiens;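 further: growth inhibition of SK-UT-1 cells, measured by a cell viability assay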
Description: SANGER: Inhibition of human SK-UT-1 cell growth in a cell viability assay.

EW-13 = assay type: functional, cell-based; conditions: Homo sapiens;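 further: growth inhibition of EW-13 cells, read out with a cell viability assay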
Description: SANGER: Inhibition of human EW-13 cell growth in a cell viability assay.

LB2518-MEL = assay type: functional, cell-based; conditions: Homo sapiens;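 further: growth inhibition of human LB2518-MEL cells, measured with a cell viability assay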
Description: SANGER: Inhibition of human LB2518-MEL cell growth in a cell viability assay.

HDLM-2 = assay type: functional, cell-based; conditions: Homo sapiens;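 further: cell viability assay measuring suppression of HDLM-2 proliferation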
Description: SANGER: Inhibition of human HDLM-2 cell growth in a cell viability assay.

RPMI-8866 = assay type: functional, cell-based; conditions: Homo sapiens
Description: SANGER: Inhibition of human RPMI-8866 cell growth in a cell viability assay.

NCI-H1838 = assay type: functional, cell-based; conditions: Homo sapiens;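 further: growth inhibition of NCI-H1838 cells, determined with a cell viability readout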
Description: SANGER: Inhibition of human NCI-H1838 cell growth in a cell viability assay.

NCI-H1581 = assay type: functional, cell-based; conditions: Homo sapiens;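 further: cell growth inhibition read out by a viability assay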
Description: SANGER: Inhibition of human NCI-H1581 cell growth in a cell viability assay.

SK-MEL-1 = assay type: functional, cell-based; conditions: Homo sapiens;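 further: growth inhibition of human SK-MEL-1 cells, read out by a cell viability assay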
Description: SANGER: Inhibition of human SK-MEL-1 cell growth in a cell viability assay.

NCI-H1563 = assay type: functional, cell-based; conditions: Homo sapiens;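 further: growth inhibition of human NCI-H1563 cells, read out with a cell viability assay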
Description: SANGER: Inhibition of human NCI-H1563 cell growth in a cell viability assay.

NCI-H1693 = assay type: functional, cell-based; conditions: Homo sapiens;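 further: growth inhibition of the human cell line, read out with a cell viability assay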
Description: SANGER: Inhibition of human NCI-H1693 cell growth in a cell viability assay.

Becker = assay type: functional, cell-based; conditions: Homo sapiens;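 further: growth inhibition of Becker cells, read out with a cell viability assay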
Description: SANGER: Inhibition of human Becker cell growth in a cell viability assay.

KM-H2 = assay type: functional, cell-based; conditions: Homo sapiens;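 further: growth inhibition of KM-H2 cells, read out by a cell viability assay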
Description: SANGER: Inhibition of human KM-H2 cell growth in a cell viability assay.

697 = assay type: functional, cell-based; conditions: Homo sapiens
Description: SANGER: Inhibition of human 697 cell growth in a cell viability assay.

DJM-1 = assay type: functional, cell-based; conditions: Homo sapiens;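 further: growth inhibition of human DJM-1 cells, read out by a cell viability assay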
Description: SANGER: Inhibition of human DJM-1 cell growth in a cell viability assay.

HAL-01 = assay type: functional, cell-based; conditions: Homo sapiens;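 further: growth inhibition of human HAL-01 cells, read out with a cell viability assay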
Description: SANGER: Inhibition of human HAL-01 cell growth in a cell viability assay.

A498 = assay type: functional, cell-based; conditions: Homo sapiens;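 further: growth inhibition of human A498 cells, read out with a cell viability assay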
Description: SANGER: Inhibition of human A498 cell growth in a cell viability assay.

LB1047-RCC = assay type: functional, cell-based; conditions: Homo sapiens;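 further: inhibition of cell growth, determined with a cell viability assay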
Description: SANGER: Inhibition of human LB1047-RCC cell growth in a cell viability assay.

TGBC24TKB = assay type: functional, cell-based; conditions: Homo sapiens;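 further: growth inhibition of human TGBC24TKB cells, read out with a cell viability assay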
Description: SANGER: Inhibition of human TGBC24TKB cell growth in a cell viability assay.

NCI-H1304 = assay type: functional, cell-based; conditions: Homo sapiens;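 further: growth inhibition of the cancer cell line, measured in a cell viability assay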
Description: SANGER: Inhibition of human NCI-H1304 cell growth in a cell viability assay.

ATN-1 = assay type: functional, cell-based; conditions: Homo sapiens;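 further: growth inhibition of human ATN-1 cells, read out with a cell viability assay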
Description: SANGER: Inhibition of human ATN-1 cell growth in a cell viability assay.

KNS-81-FD = assay type: functional, cell-based; conditions: Homo sapiens;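 further: growth inhibition of KNS-81-FD cells, read out with a cell viability assay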
Description: SANGER: Inhibition of human KNS-81-FD cell growth in a cell viability assay.

HCC1187 = assay type: functional, cell-based; conditions: Homo sapiens;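 further: growth inhibition of HCC1187 cells, read out with a cell viability assay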
Description: SANGER: Inhibition of human HCC1187 cell growth in a cell viability assay.

RCC10RGB = assay type: functional, cell-based; conditions: Homo sapiens;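 further: growth inhibition of human RCC10RGB cells, read out by a cell viability assay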
Description: SANGER: Inhibition of human RCC10RGB cell growth in a cell viability assay.

MeWo = assay type: functional, cell-based; conditions: Homo sapiens;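 further: growth inhibition of MeWo cells, determined by a cell viability readout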
Description: SANGER: Inhibition of human Mewo cell growth in a cell viability assay.

HOS = assay type: functional, cell-based; conditions: Homo sapiens;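 further: growth inhibition of human HOS cells, read out with a cell viability assay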
Description: SANGER: Inhibition of human HOS cell growth in a cell viability assay.

ES6 = assay type: functional, cell-based; conditions: Homo sapiens;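 further: growth inhibition of human ES6 cells, read out with a cell viability assay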
Description: SANGER: Inhibition of human ES6 cell growth in a cell viability assay.

EKVX = assay type: functional, cell-based; conditions: Homo sapiens;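 further: growth inhibition of human EKVX cells, read out with a cell viability assay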
Description: SANGER: Inhibition of human EKVX cell growth in a cell viability assay.

SK-LMS-1 = assay type: functional, cell-based; conditions: Homo sapiens;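 further: growth inhibition of human SK-LMS-1 cells, read out with a cell viability assay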
Description: SANGER: Inhibition of human SK-LMS-1 cell growth in a cell viability assay.

ES4 = assay type: functional, cell-based; conditions: Homo sapiens
Description: SANGER: Inhibition of human ES4 cell growth in a cell viability assay.

ES5 = assay type: functional, cell-based; conditions: Homo sapiens
Description: SANGER: Inhibition of human ES5 cell growth in a cell viability assay.

KARPAS-299 = assay type: functional, cell-based; conditions: Homo sapiens
Description: SANGER: Inhibition of human KARPAS-299 cell growth in a cell viability assay.

MMAC-SF = assay type: functional, cell-based; conditions: Homo sapiens
Description: SANGER: Inhibition of human MMAC-SF cell growth in a cell viability assay.

Measured: IC50

O=c1cc(N2CCOCC2)oc2c(-c3cccc4c3sc3ccccc34)cccc12
1790 nM: SK-MEL-1
323 nM: HDLM-2
> 2000 nM: all other assays above
